Test results taken from PMC12171764 (Computational and Structural Biotechnology Journal, 2025).

Tests used:
PhGal4E_1 = target: T1, PhGal4E_1 (Pyrococcus horikoshii, UniProt O73960); assay: X-ray crystal structure, […] Å, crystal soaking; format: binding; settings: soaked 1-3 min with 10 mM GDP-L-Fuc; active site, NAD+ bound
T1 sequence (O73960 1-318): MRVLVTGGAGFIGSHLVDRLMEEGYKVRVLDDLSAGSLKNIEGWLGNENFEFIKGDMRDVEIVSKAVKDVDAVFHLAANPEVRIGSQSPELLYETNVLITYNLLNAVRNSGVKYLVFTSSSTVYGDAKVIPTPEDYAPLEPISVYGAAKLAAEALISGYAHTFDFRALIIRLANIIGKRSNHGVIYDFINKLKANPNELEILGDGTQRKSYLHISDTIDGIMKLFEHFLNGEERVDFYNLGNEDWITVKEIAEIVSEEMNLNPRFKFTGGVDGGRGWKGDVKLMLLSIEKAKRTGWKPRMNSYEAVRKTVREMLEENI

[1] = target: PhGal4E_1 variant Y145F (Pyrococcus horikoshii); assay: crystal structure

Row | stoichiometry N [1] | Compound | X-ray crystal structure, 2.4 Å, crystal soaking (PhGal4E_1)
1 |  | C[C@@H]1O[C@H](OP(=O)(O)OP(=O)(O)OC[C@H]2O[C@@H](n3cnc4c(=O)[nH]c(N)nc43)[C@H](O)[C@@H]2O)[C@@H](O)[C@H](O)[C@@H]1O [GDP-L-Fuc] | NAD^+ cofactor and GDP-L-Fuc bound in the active site of the WT (PDB ID: 8RDH
2 | 2 | PhGal4E_1 variant Y145F (enzyme) | 
